This is an account of results in patent US6946480B2, “Glutaminyl based DPIV inhibitors” (priority 2002, dated 2005).

In the test the target is T1, plasma DPIV activity (Rattus norvegicus, UniProt P14740).
T1 construct: The assay mixture for determination of plasma DPIV activity consisted of 80 μl reagent and 20 μl plasma sample; from tissue; host or cells: plasma of male Wistar rats
The test is described as follows: Plasma DPIV inhibiting activity after intravasal and oral administration to Wistar rats. Conditions: 100 mg/kg b.w. vs. placebo, oral and intra-vasal administration. In kind it is in vivo. On the procedure: Male Wistar rats (Shoe: Wist(Sho)) with a body weight ranging between 250 and 350 g were purchased from Tierzucht Schönwalde (Schönwalde, Germany).
Animals were single-caged under conventional conditions with controlled temperature (22±2° C.) on a 12/12 hours light/dark cycle (light on at 06:00 AM). Standard pelleted chow (ssniff® Soest, Germany) and tap water acidified with HCl were allowed ad libitum.
After ≧one week of adaptation at the housing conditions, catheters were implanted into the carotid artery of Wistar rats under general anaesthesia (i.p. injection of 0.25 ml/kg b.w. Rompun® [2%], BayerVital, Germany and 0.5 ml/kg b.w. Ketamin 10, Atarost GmbH & Co., Twistringen, Germany). The animals were allowed to recover for one week. The catheters were flushed with heparin-saline (100 IU/ml) three times per week. In case of catheter dysfunction, a second catheter was inserted into the contra-lateral carotid artery of the respective rat. After one week of recovery from surgery, this animal was reintegrated into the study. In case of dysfunction of the second catheter, the animal was withdrawn from the study. […]
Statistical evaluations and graphics were performed with PRISM® 3.02 (GraphPad Software, Inc.). All parameters were analysed in a descriptive manner including mean and SD.

T1 sequence (P14740 37-767 limits assumed): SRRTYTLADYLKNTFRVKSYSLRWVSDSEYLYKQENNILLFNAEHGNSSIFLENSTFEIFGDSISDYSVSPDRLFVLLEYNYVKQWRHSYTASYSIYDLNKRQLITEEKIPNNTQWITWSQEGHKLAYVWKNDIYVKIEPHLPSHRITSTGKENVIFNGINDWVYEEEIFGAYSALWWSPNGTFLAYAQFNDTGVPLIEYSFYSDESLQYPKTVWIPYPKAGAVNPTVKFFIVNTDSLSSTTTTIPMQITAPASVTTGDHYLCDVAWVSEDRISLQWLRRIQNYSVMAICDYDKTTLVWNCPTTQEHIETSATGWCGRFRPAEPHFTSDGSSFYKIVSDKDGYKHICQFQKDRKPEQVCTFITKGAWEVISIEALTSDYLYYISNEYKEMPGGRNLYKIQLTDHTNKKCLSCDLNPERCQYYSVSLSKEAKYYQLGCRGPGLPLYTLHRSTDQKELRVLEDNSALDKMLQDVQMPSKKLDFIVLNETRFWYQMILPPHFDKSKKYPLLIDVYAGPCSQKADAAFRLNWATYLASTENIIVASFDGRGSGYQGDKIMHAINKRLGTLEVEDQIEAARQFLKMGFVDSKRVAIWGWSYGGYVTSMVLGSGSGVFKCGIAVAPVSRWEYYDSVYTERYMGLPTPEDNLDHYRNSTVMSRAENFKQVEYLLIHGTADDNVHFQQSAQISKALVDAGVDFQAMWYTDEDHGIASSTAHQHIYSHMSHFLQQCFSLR

On to `NC(=O)CC[C@H](N)C(=O)N1CCCC1` [glutaminyl pyrrolidine], for which the “inhibition of plasma DPIV activity in vivo” value is “inhibited plasma DPIV activity”.
